Test results taken from patent US20090118350A1, “Biomarkers for Identifying Efficacy of Tegaserod in Patients with Chronic Constipation” (priority 2005, published 2009).

Tested on: patients with chronic constipation
Experiment: Clinical trial, primary efficacy: mean increase of 1 or more CSBM/week over baseline after 4 weeks of treatment (responders), by subgroup and genotype
Format: in vivo, human
Settings: 6-mg bid vs placebo, 4 weeks
Protocol: Introduction. A clinical trial was performed to evaluate the efficacy of tegaserod (Zelmac®/Zelnorm™) at 6 mg bid (12 mg/day) or 2 mg bid (4 mg/day) vs. placebo by measuring the number of complete spontaneous bowel movements (CSBM) during the first 4 weeks of treatment. Secondary objectives included evaluating the number of CSBM during the entire 12-week treatment period, bowel habits, laxative use, and safety and tolerability issues. The clinical trial design consisted of a 2-week baseline period without medication, a 12-week, randomized, double-blind, placebo-controlled treatment period, and a 4-week withdrawal period without study medication. As part of the clinical trial, DNA was collected from patients at screening for pharmacogenetic analysis to evaluate genetic polymorphisms relating to drug targets and disease aetiology.
Samples. A total 1348 patients were randomized as the intent-to-treat (ITT) population. Blood samples from these patients were collected at the time of patient screening and DNA was extracted using the PUREGENE™ DNA Isolation Kit (D-50K). Of these, samples from 738 randomized patients had good quality genotype data for at least half of the 55 SNPs evaluated.
Clinical assessments. […] The primary efficacy endpoint evaluated was the increase of 1 or more CSBM/week over baseline after 4 weeks of treatment. A secondary endpoint evaluated in this genotyping study was RESP12, the increase of 1 of more CSBM/week over baseline after 12 weeks of treatment. Patients were classified as responders if they met these criteria and had completed at least 7 days of treatment. Additional secondary efficacy assessments were evaluated based on the weekly diary assessments, such as bothersome constipation, bothersome abdominal pain, and satisfaction with bowel habits at the end of the 12-week treatment period (using the baseline value as a co-variant for analysis).
Genotyping. A total of 61 polymorphisms in 23 candidate genes were selected for analysis. Genotyping was performed using the TaqMan® technology for most of the assays, while a few were performed in-house using the Third Wave Technologies Invader Assay technique (see TABLE 2 for assay IDs for all evaluated SNPs). Of the 61 SNPs genotyped, 55 yielded good quality, polymorphic genotypes for use in further evaluation.
Statistical analysis. Statistical analysis was performed using SAS version 8.2 (The SAS Institute, Cary, N.C., USA). Analysis methods included Fisher's Exact tests, analysis of Covariance (ANCOVA), logistic regression, and Mantel-Haenzel tests to determine odds ratios and 95% confidence intervals, with significance established at p<0.05. Calculation of linkage disequilibrium was performed using the GOLD (graphical overview of linkage disequilibrium) method described by Abecasis & Cookson, Bioinformatics 16: 182-3 (2000).
Demographic comparisons. TABLE 3 presents the demographic breakdown of the patients in the overall clinical study and those included in this genotype analysis. Distributions were similar between the genotype population and the total patient population. […] Based on these findings, it was decided to limit analysis to the Caucasian population, which accounted for nearly 90% of all patients, to prevent a confounding effect of race on subsequent genotype analyses. Furthermore, the analysis was also limited to those intent-to-treat patients that were treated with tegaserod or placebo for at least 7 days (total of 635 patients).
Comparison of overall response rates. TABLE 4 presents the overall response for the primary efficacy endpoint (a mean increase in 1 or more CSBM/week over baseline after 4 weeks) for tegaserod 6-mg bid compared with placebo for both the overall patient population and the subgroup of patients for which we had genotype data (all races and Caucasians only). […]

SMILES: [H]/N=C(/NCCCCC)N/N=C/c1c[nH]c2ccc(OC)cc12 [tegaserod, Tegaserod]
- Odds Ratio (All Caucasians (ITT, >=7 days), Age <65, M + F): 2.7
- Odds Ratio (All Caucasians (ITT, >=7 days), Age >=65, M + F): 1.2
- Odds Ratio (All Caucasians (ITT, >=7 days), Age All, Female): 2.6
- Odds Ratio (All Caucasians (ITT, >=7 days), Age All, M + F): 2.5
- Odds Ratio (All Caucasians (ITT, >=7 days), Age All, Male): 1.8
- Odds Ratio (All genotyped (ITT, >=7 days), Age <65, M + F): 2.8
- Odds Ratio (All genotyped (ITT, >=7 days), Age >=65, M + F): 2.4
- Odds Ratio (All genotyped (ITT, >=7 days), Age All, Female): 2.7
- Odds Ratio (All genotyped (ITT, >=7 days), Age All, M + F): 2.7
- Odds Ratio (All genotyped (ITT, >=7 days), Age All, Male): 2.5
- Odds Ratio (All patients (ITT, >=7 days), Age <65, M + F): 2.5
- Odds Ratio (All patients (ITT, >=7 days), Age >=65, M + F): 1.4
- Odds Ratio (All patients (ITT, >=7 days), Age All, Female): 2.4
- Odds Ratio (All patients (ITT, >=7 days), Age All, M + F): 2.3
- Odds Ratio (All patients (ITT, >=7 days), Age All, Male): 1.9
- Odds Ratio (Caucasians genotyped (ITT, >=7 days), Age <65, M + F, all genotypes): 2.8
- Odds Ratio (Caucasians genotyped (ITT, >=7 days), Age >=65, M + F, all genotypes): 2.1
- Odds Ratio (Caucasians genotyped (ITT, >=7 days), Age All, Female, all genotypes): 2.7
- Odds Ratio (Caucasians genotyped (ITT, >=7 days), Age All, M + F, all genotypes): 2.6
- Odds Ratio (Caucasians genotyped (ITT, >=7 days), Age All, Male, all genotypes): 2.5
- Odds Ratio (ITT Caucasians >=7 days, 0 of 14 SNPs): 1.1
- Odds Ratio (ITT Caucasians >=7 days, >=1 of 14 SNPs): 4.1
- Odds Ratio (ITT Caucasians >=7 days, AQP3 (PG ID 1838) genotype CC): 2.4
- Odds Ratio (ITT Caucasians >=7 days, AQP3 (PG ID 1838) genotype CG): 2.6
- Odds Ratio (ITT Caucasians >=7 days, AQP3 (PG ID 1838) genotype GG): 11.3
- Odds Ratio (ITT Caucasians >=7 days, Female (All ages), 0 of the 12 SNPs): 1.5
- Odds Ratio (ITT Caucasians >=7 days, Female (All ages), 1-12 of the 12 SNPs): 4.7
- Odds Ratio (ITT Caucasians >=7 days, HTR3B (PG ID 3755) genotype AA): 2.7
- Odds Ratio (ITT Caucasians >=7 days, HTR3B (PG ID 3755) genotype AC): 2.0
- Odds Ratio (ITT Caucasians >=7 days, HTR3B (PG ID 3755) genotype CC): 8.0
- Odds Ratio (ITT Caucasians >=7 days, HTR4 (PG ID 1746) genotype CC): 2.7
- Odds Ratio (ITT Caucasians >=7 days, HTR4 (PG ID 1746) genotype CT): 2.2
- Odds Ratio (ITT Caucasians >=7 days, HTR4 (PG ID 1746) genotype TT): 8.4
- Odds Ratio (ITT Caucasians >=7 days, HTR4 (PG ID 3743) genotype AA): 3.0
- Odds Ratio (ITT Caucasians >=7 days, HTR4 (PG ID 3743) genotype AC): 2.8
- Odds Ratio (ITT Caucasians >=7 days, HTR4 (PG ID 3743) genotype CC): 14.0
- Odds Ratio (ITT Caucasians >=7 days, HTR4 (PG ID 3747) genotype AA): 3.0
- Odds Ratio (ITT Caucasians >=7 days, HTR4 (PG ID 3747) genotype AT): 2.2
- Odds Ratio (ITT Caucasians >=7 days, HTR4 (PG ID 3747) genotype TT): 5.8
- Odds Ratio (ITT Caucasians >=7 days, HTR4 (PG ID 3753) genotype CC): 2.7
- Odds Ratio (ITT Caucasians >=7 days, HTR4 (PG ID 3753) genotype CT): 2.1
- Odds Ratio (ITT Caucasians >=7 days, HTR4 (PG ID 3753) genotype TT): 7.0
- Odds Ratio (ITT Caucasians >=7 days, HTR4 (PG ID 3754) genotype AA): 3.2
- Odds Ratio (ITT Caucasians >=7 days, HTR4 (PG ID 3754) genotype AT): 1.9
- Odds Ratio (ITT Caucasians >=7 days, HTR4 (PG ID 3754) genotype TT): 4.9
- Odds Ratio (ITT Caucasians >=7 days, HTR4 (PG ID 3756) genotype AA): 2.8
- Odds Ratio (ITT Caucasians >=7 days, HTR4 (PG ID 3756) genotype AC): 2.0
- Odds Ratio (ITT Caucasians >=7 days, HTR4 (PG ID 3756) genotype CC): 8.1
- Odds Ratio (ITT Caucasians >=7 days, M + F (<65), 0 of the 12 SNPs): 1.5
- Odds Ratio (ITT Caucasians >=7 days, M + F (<65), 1-12 of the 12 SNPs): 5.3
- Odds Ratio (ITT Caucasians >=7 days, M + F (>=65), 0 of the 12 SNPs): 0.3
- Odds Ratio (ITT Caucasians >=7 days, M + F (>=65), 1-12 of the 12 SNPs): 7.0
- Odds Ratio (ITT Caucasians >=7 days, M + F (All ages), 0 of the 12 high responder SNPs): 1.3
- Odds Ratio (ITT Caucasians >=7 days, M + F (All ages), 1-12 of the 12 high responder SNPs): 5.4
- Odds Ratio (ITT Caucasians >=7 days, MLN (PG ID 1783) genotype CC): 2.5
- Odds Ratio (ITT Caucasians >=7 days, MLN (PG ID 1783) genotype CT): 2.0
- Odds Ratio (ITT Caucasians >=7 days, MLN (PG ID 1783) genotype TT): 7.2
- Odds Ratio (ITT Caucasians >=7 days, Male (All ages), 0 of the 12 SNPs): 0.3
- Odds Ratio (ITT Caucasians >=7 days, Male (All ages), 1-12 of the 12 SNPs): 22.5
- Odds Ratio (ITT Caucasians >=7 days, SCNN1A (PG ID 3806) genotype GG): 5.0
- Odds Ratio (ITT Caucasians >=7 days, SCNN1A (PG ID 3806) genotype GT): 2.5
- Odds Ratio (ITT Caucasians >=7 days, SCNN1A (PG ID 3806) genotype TT): 1.9
- Odds Ratio (ITT Caucasians >=7 days, SLC12A2 (PG ID 1842) genotype AA): 12.0
- Odds Ratio (ITT Caucasians >=7 days, SLC12A2 (PG ID 1842) genotype AG): 1.1
- Odds Ratio (ITT Caucasians >=7 days, SLC12A2 (PG ID 1842) genotype GG): 2.9
- Odds Ratio (ITT Caucasians >=7 days, SLC12A2 (PG ID 3801) genotype CC): 17.0
- Odds Ratio (ITT Caucasians >=7 days, SLC12A2 (PG ID 3801) genotype CT): 0.8
- Odds Ratio (ITT Caucasians >=7 days, SLC12A2 (PG ID 3801) genotype TT): 3.8
- Odds Ratio (ITT Caucasians >=7 days, TPH1 (PG ID 1756) genotype GG): 5.4
- Odds Ratio (ITT Caucasians >=7 days, TPH1 (PG ID 1756) genotype GT): 2.4
- Odds Ratio (ITT Caucasians >=7 days, TPH1 (PG ID 1756) genotype TT): 1.5
- Odds Ratio (ITT Caucasians >=7 days, TPH1 (PG ID 3784) genotype CC): 1.6
- Odds Ratio (ITT Caucasians >=7 days, TPH1 (PG ID 3784) genotype CT): 2.4
- Odds Ratio (ITT Caucasians >=7 days, TPH1 (PG ID 3784) genotype TT): 5.5
- Odds Ratio (high responder genotypes of the twelve SNPs in six genes): ≥ 5
